From ChEMBL document CHEMBL4622995, “Aryl Ether-Derived Sphingosine-1-Phosphate Receptor (S1P1) Modulators: Optimization of the PK, PD, and Safety Profiles” (ACS Med Chem Lett, 2020) come the findings set out here.

The nature of data set [1]: Cardiotoxicity in human iPSC derived cardiomyocytes assessed as reduction in beating rate at 1 nM. Type of data set: toxicity, cell-based, Cardiac muscle cell.
A short description of data set [2]: Cardiotoxicity in human iPSC derived cardiomyocytes assessed as reduction in beating rate at 10 nM. Type of data set: toxicity, cell-based, Cardiac muscle cell.
Data set [3] concerns Rattus norvegicus. In words: Reduction in circulating lymphocytes count in Lewis rat peripheral blood at 2 mg/kg, po measured after 24 hrs by hematology analyzer based analysis. Type of data set: functional.
Data set [4] in a line: Elimination half-life in Lewis rat at 2 mg/kg, po. Type of data set: ADME, organism-based. The conditions noted are these: in vivo, read-out: beta t1/2 (converted).
The subject of data set [5] is Rattus norvegicus. In words: Reduction in circulating lymphocytes count in Lewis rat peripheral blood at 0.1 mg/kg, po measured after 24 hrs by hematology analyzer based analysis. Type of data set: functional.
Data set [6] has as its system Rattus norvegicus. In words: Reduction in circulating lymphocytes count in Lewis rat peripheral blood at 0.3 mg/kg, po measured after 24 hrs by hematology analyzer based analysis. Type of data set: functional.
Data set [7] can be described thus: Elimination half-life in Lewis rat at 0.3 mg/kg, po. Type of data set: ADME, organism-based. The conditions noted are these: in vivo, read-out: beta t1/2 (converted).
Data set [8] can be described thus: Pulmonary toxicity in Lewis rat assessed as elevation of BAL protein content at 2 mg/kg, po. The note with it: in vivo. Type of data set: organism-based.
For data set [9], the system named is Rattus norvegicus. In words: Reduction in circulating lymphocytes count in po dosed Lewis rat peripheral blood measured after 24 hrs by hematology analyzer based analysis. Type of data set: functional.
Data set [10] is described as follows: Pulmonary toxicity in Lewis rat assessed as elevation of BAL protein content at >30XED50, po. The conditions noted are these: in vivo.
Data set [11] concerns Rattus norvegicus. In words: Reduction in circulating lymphocytes count in Lewis rat peripheral blood at 0.05 mg/kg, po measured after 24 hrs by hematology analyzer based analysis. Type of data set: functional.
The test system of data set [12] is Rattus norvegicus. In words: Reduction in circulating lymphocytes count in Lewis rat peripheral blood at 1 mg/kg, po measured after 24 hrs by hematology analyzer based analysis. Type of data set: functional.
For data set [13], the system named is Rattus norvegicus. In words: Reduction in circulating lymphocytes count in Lewis rat peripheral blood at 1.5 mg/kg, po measured after 24 hrs by hematology analyzer based analysis. Type of data set: functional.
Data set [14] has as its target T1, Sphingosine kinase 2 (Rattus norvegicus, UniProt A6JB73).
T1 sequence (A6JB73 whole entry): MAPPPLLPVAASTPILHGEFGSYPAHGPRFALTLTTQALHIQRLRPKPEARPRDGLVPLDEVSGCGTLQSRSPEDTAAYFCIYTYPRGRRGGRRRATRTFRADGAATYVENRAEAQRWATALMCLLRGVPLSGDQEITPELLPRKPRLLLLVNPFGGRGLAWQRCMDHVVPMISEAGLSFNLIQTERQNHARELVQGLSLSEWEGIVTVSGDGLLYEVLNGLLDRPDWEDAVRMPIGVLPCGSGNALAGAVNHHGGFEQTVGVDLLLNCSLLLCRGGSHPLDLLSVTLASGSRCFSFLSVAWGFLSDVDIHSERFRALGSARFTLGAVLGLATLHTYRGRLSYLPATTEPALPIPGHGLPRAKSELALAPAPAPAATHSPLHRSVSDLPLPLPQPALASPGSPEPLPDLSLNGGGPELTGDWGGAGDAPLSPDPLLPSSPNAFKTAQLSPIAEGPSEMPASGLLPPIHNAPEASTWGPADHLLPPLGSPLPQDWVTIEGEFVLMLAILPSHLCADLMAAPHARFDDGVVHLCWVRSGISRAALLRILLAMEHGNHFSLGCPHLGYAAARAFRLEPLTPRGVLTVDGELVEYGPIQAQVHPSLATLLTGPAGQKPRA
In words: Drug metabolism in Sprague-Dawley rat assessed as SphK2-mediated compound phosphorylation by measuring ratio of phosphorylated compound to parent compound measured after 24 hrs. Type of data set: ADME.

Data set [15] in a line: Drug metabolism in Cynomolgous monkey assessed as SphK2-mediated compound phosphorylation by measuring ratio of phosphorylated compound to parent compound measured after 24 hrs. Type of data set: ADME, Macaca fascicularis. The conditions noted are these: cynomolgus monkey.
Data set [16] deals with T2, Sphingosine kinase 2 (Homo sapiens, UniProt Q9NRA0).
T2 sequence (Q9NRA0 whole entry): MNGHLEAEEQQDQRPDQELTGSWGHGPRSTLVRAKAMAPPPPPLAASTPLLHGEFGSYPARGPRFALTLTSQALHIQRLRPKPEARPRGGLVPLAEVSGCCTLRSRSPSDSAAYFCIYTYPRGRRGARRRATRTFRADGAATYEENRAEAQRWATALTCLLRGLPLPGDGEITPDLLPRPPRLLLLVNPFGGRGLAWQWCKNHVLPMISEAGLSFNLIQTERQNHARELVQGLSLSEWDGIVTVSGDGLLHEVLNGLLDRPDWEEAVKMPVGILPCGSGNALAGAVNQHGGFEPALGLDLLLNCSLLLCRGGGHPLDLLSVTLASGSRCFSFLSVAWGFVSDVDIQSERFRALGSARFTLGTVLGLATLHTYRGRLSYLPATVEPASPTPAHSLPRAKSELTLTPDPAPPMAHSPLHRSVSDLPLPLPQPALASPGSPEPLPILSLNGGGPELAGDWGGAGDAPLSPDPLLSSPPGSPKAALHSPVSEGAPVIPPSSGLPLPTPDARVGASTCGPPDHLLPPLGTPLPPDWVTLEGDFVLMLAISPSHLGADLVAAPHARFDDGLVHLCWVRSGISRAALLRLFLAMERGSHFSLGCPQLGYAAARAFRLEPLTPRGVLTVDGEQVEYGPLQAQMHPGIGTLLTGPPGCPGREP
In words: Drug metabolism in human assessed as SphK2-mediated compound phosphorylation by measuring ratio of phosphorylated compound to parent compound measured after 24 hrs. Type of data set: ADME.

Data set [17] in a line: Elimination half-life in po dose Lewis rat. Type of data set: ADME, organism-based. The note with it: in vivo, read-out: beta t1/2.
The species entered for data set [18] is Homo sapiens. In words: Reduction in absolute lymphocytes count in human at 1.5 mg/day. Type of data set: functional.

For orientation: inhibition means how much of the control response was suppressed. In the case of `CCCCCC[C@@H]1CCc2cc([C@H]3CC[C@](N)(COP(=O)(O)O)C3)ccc2C1`, the inhibition at 0.001 µM in data set [1] was 1%. Also, the inhibition at 0.01 µM in [2] worked out at 32%.
As usually defined, the inhibition in vivo is the drop in the measured response relative to a control, in per cent. Take `N[C@]1(CO)CC[C@H](c2ccc3c(c2)CC[C@@H](COc2ccc(F)cc2)C3)C1`: the inhibition in vivo at 2 mg/kg in [3] was determined as 74%. The half-life in data set [4] is 46 h.
In [3], `COc1ccc(OC[C@@H]2CCc3cc([C@H]4CC[C@](N)(CO)C4)ccc3C2)cc1` showed an inhibition in vivo at 2 mg/kg of 47%. Moreover, the half-life in data set [4] is under 10 h.
`COc1ccccc1CC[C@H]1CCc2cc([C@H]3CC[C@](N)(CO)C3)ccc2C1` had an inhibition in vivo at 0.1 mg/kg in data set [5] of 17%.
For `COc1cccc(CO[C@H]2CCc3cc([C@H]4CC[C@](N)(CO)C4)ccc3C2)c1`, in data set [6], the inhibition in vivo at 0.3 mg/kg is 13%.
Still for that read-out and setting: under `N[C@]1(CO)CC[C@H](c2ccc3c(c2)CC[C@H](COCc2ccccc2)C3)C1` stands 0%.
In data set [6], `N[C@]1(CO)CC[C@H](c2ccc3c(c2)CC[C@@H](COCc2ccccc2)C3)C1` registered an inhibition in vivo at 0.3 mg/kg of 49%. For the same compound, in data set [7], the half-life is 11 h.
For the compound `COc1ccccc1CC[C@@H]1CCc2cc([C@H]3CC[C@](N)(COP(=O)(O)O)C3)ccc2C1`, the inhibition at 0.001 µM in [1] was found to be 11%. In data set [2], the inhibition at 0.01 µM came to 27%.
With `COc1ccccc1OC[C@@H]1CCc2cc([C@H]3CC[C@](N)(COP(=O)(O)O)C3)ccc2C1`, the inhibition at 0.001 µM in data set [1] was found to be 20%. In [2], the inhibition at 0.01 µM turned out to be 43%.
In data set [3], `Cc1ccc(OC[C@@H]2CCc3cc([C@H]4CC[C@](N)(CO)C4)ccc3C2)cc1` showed an inhibition in vivo at 2 mg/kg of 20%. Further, in data set [4], the half-life is 35 h.
In turn, `COc1ccccc1OC[C@@H]1CCc2cc([C@H]3CC[C@](N)(CO)C3)ccc2C1` came in with an inhibition in vivo at 2 mg/kg in data set [3] of 85%. Further, the half-life in data set [4] was 14 h.
In [6], `COc1cccc(OC[C@H]2CCc3cc([C@H]4CC[C@](N)(CO)C4)ccc3C2)c1` yielded an inhibition in vivo at 0.3 mg/kg of 70%.
The compound `N[C@]1(CO)CC[C@H](c2ccc3c(c2)CC[C@H](CSc2ccccc2)C3)C1` had an inhibition in vivo at 0.3 mg/kg in data set [6] of 29%.
The compound `COc1ccc(OC[C@@H]2CCc3cc([C@H]4CC[C@](N)(CO)C4)ccc3C2)c(F)c1F` returned an inhibition in vivo at 2 mg/kg in [3] of 48%.
Regarding `COc1ccccc1SC[C@@H]1CCc2cc([C@H]3CC[C@](N)(CO)C3)ccc2C1`, the inhibition in vivo at 2 mg/kg in data set [3] is 78 to 79%. The Activity in data set [8] came out at 67%. Further, the half-life in [4] is 24 h.
With `COc1cccc(COC[C@@H]2CCc3cc([C@H]4CC[C@](N)(CO)C4)ccc3C2)c1`, in [6], the inhibition in vivo at 0.3 mg/kg was found to be 40%.
Take `COc1cccc(OC[C@@H]2CCc3cc([C@H]4CC[C@](N)(COP(=O)(O)O)C4)ccc3C2)c1`: the inhibition at 0.001 µM in [1] is 13%. Moreover, the inhibition at 0.01 µM in data set [2] was 30%.
In general, ED50 refers to the midpoint of the dose-response relation. Turning to `COc1cccc(OC[C@@H]2CCc3cc([C@H]4CC[C@](N)(CO)C4)ccc3C2)c1`, in [6], at 0.3 mg/kg the inhibition in vivo was 80%. In [3], this compound returned an inhibition in vivo at 2 mg/kg of 86%. Moreover, the ED50 in data set [9] is under 0.05 mg/kg. For the same compound, the Activity result in data set [10] is “Non-Toxic”. In data set [11], this compound displayed an inhibition in vivo at 0.05 mg/kg of 72%. The compound also came in with an inhibition in vivo at 1 mg/kg in [12] of 80%. Further, in data set [13], 1.5 mg/kg produced 81% inhibition in vivo. In addition, the Ratio in [14] worked out at 1.5; in data set [15], 1.3. For the same compound, the half-life in [7] and in data set [4] was 24 h in each case.
As for `COc1ccccc1SC[C@@H]1CCc2cc([C@H]3CC[C@](N)(COP(=O)(O)O)C3)ccc2C1`, in data set [1], the inhibition at 0.001 µM is 16%. Also, the inhibition at 0.01 µM in [2] amounted to 26%.
The like results for `N[C@]1(COP(=O)(O)O)CC[C@H](c2ccc3c(c2)CC[C@@H](COCc2ccccc2)C3)C1` were, in that order, 16% and 52%.
`COc1cccc(CO[C@@H]2CCc3cc([C@H]4CC[C@](N)(CO)C4)ccc3C2)c1` gave an inhibition in vivo at 0.3 mg/kg in data set [6] of 15%.
For the compound `COc1cccc(SC[C@@H]2CCc3cc([C@H]4CC[C@](N)(COP(=O)(O)O)C4)ccc3C2)c1`, in data set [1], the inhibition at 0.001 µM is 30%. In data set [2], the inhibition at 0.01 µM amounted to 44%.
`COc1ccc(OC[C@@H]2CCc3cc([C@H]4CC[C@](N)(CO)C4)ccc3C2)cc1C(C)(C)C` came in with an inhibition in vivo at 2 mg/kg in data set [3] of 53%.
`N[C@]1(CO)CC[C@H](c2ccc3c(c2)CC[C@@H](CSc2ccccc2)C3)C1` showed an inhibition in vivo at 0.3 mg/kg in data set [6] of 31%. The inhibition in vivo at 2 mg/kg in data set [3] worked out at 73%. For the same compound, in data set [4], the half-life is 20 h.
Compound `COc1ccc(COC[C@@H]2CCc3cc([C@H]4CC[C@](N)(CO)C4)ccc3C2)cc1` registered an inhibition in vivo at 0.3 mg/kg in [6] of 33%.
As to `COc1cccc(SC[C@@H]2CCc3cc([C@H]4CC[C@](N)(CO)C4)ccc3C2)c1`, the inhibition in vivo at 2 mg/kg in [3] amounted to 81%. Further, in data set [4], the half-life is 21 h.
In the case of `CCCCCC[C@@H]1CCc2cc([C@H]3CC[C@](N)(CO)C3)ccc2C1` [BMS-986104], the ED50 in data set [9] turned out to be 0.25 mg/kg. Moreover, the Ratio in [14] stood at 2.5; in data set [15] it was 0.3; in data set [16], 0.1. In data set [17], the half-life was over 100 h.
As to `COc1ccccc1CC[C@@H]1CCc2cc([C@H]3CC[C@](N)(CO)C3)ccc2C1` [UDIFITIMOD], the “inhibition (INH)” value in [18] is over 80%. In data set [5], at 0.1 mg/kg the inhibition in vivo was 53%. Further, in [3], the inhibition in vivo at 2 mg/kg is 81%. The ED50 in data set [9] amounted to 0.1 mg/kg. Also, the results for the Ratio in data set [14], in data set [15] and in data set [16] were 5.2, 1 and 0.6, respectively. The half-life in [4] was 27 h.
